Source: patent publication US7629317B2, “Control of growth and repair of gastro-intestinal tissues by gastrokines and inhibitors” (The University of Chicago, priority 2001, dated 2009)
Entries after “also recorded” stand apart in the source; their conditions may differ.

How the values were obtained:
[1] = tested on: occludin, ZO-1, ZO-2, claudin-5, E-cadherin, JAM; assay: Accumulation of tight and adherens junction proteins in C2 cells (immunoblot of insoluble fraction, confocal microscopy); type: cell-based, human
Protocol: To find out how the peptide exerts its cytoprotective effect, C2 cell monolayers were treated with AMP peptide, and oxidant injury was induced with monochloramine 18 hours later. Changes in the levels of specific tight junction (TJ) proteins were checked. Cells were lysed, and proteins of the insoluble/particulate fraction were studied by immunoblotting. […] This observation represents the first evidence that AMP peptide enhances accumulation of specific TJ proteins in colonic epithelial cells. […] To carry out this experiment, C2 cells were exposed to AMP peptide for different periods of time, the NP-40-insoluble fraction was obtained, Western blots were prepared, and the amount of each immunoreactive protein was quantified. A 65% increase in immunoreactivity of each protein compared to control was detected for occludin after 2 hr, and for ZO-1 at 8 hr. Hsc73, which is constitutively expressed in these cells, was not altered by exposure to AMP peptide for up to 18 hr.
Confluent monolayers of C2 cells were treated with AMP peptide or vehicle for 8 hr. Cells were then collected, proteins in the NP-40-insoluble fraction were separated by SDS-PAGE, immunoblots were prepared, and the relative amounts of immunoreactive proteins were compared by densitometric analysis. […] These changes appear relatively specific for occludin, ZO-1, ZO-2, claudin-5, E-cadherin, and JAM because they were not observed for several other proteins localized in the TJ (claudin-1, claudin-2), adherens junction (β-catenin), plasma membrane (Na-K-2Cl cotransporter, α or β subunit of Na-K-ATPase), or cytosol (Rho A, hsc73).
To better understand the mechanism(s) by which AMP peptide enhances accumulation of TJ-associated proteins, experiments were performed to determine whether the peptide exerted its effect at the apical or basolateral surface of C2 cells. Monolayers of C2 cells were grown on Transwell filters, AMP peptide (8:g/ml) was added to the apical or basolateral compartment of the Transwell, and cells were harvested 8 hr later. The NP-40-insoluble fraction was obtained, its proteins separated, and immunoblots were prepared.

HeLa cells = assay: Growth of HeLa cells (non-GI control); type: cell-based, human; conditions: peptide up to 8 μg/ml
Protocol: (§1) To characterize the capacity of gastric and intestinal cells to respond to AMP-18, AGS gastric adenocarcinoma cells, HAE human gastric antrum mucosa primary cultures transformed with SV40 large T antigen, rat diploid small intestinal epithelial cells of the IEC-6 (FIG. 15) and IEC-18 lines, NCI N-87 gastric carcinoma cells, and SK-GT5 gastroesophageal adenocarcinoma cells were studied; human WI-38 fibroblasts and HeLa cells served as non-GI control cell lines. Mitogenesis was assayed by performing cell counts 3 to 4 days after exposing cells to the agent of interest, trypsinizing the culture to prepare single cells, and confirming this while counting them in a hemocytometer.

NCI N-87 cells = assay: Growth of NCI N-87 gastric carcinoma cells; type: cell-based; conditions: concentration-dependent
Protocol: as §1

[2] = tested on: mice with DSS-induced colitis; assay: DSS-induced colitis in mice (blood in stool, body weight); type: in vivo, C57BL/6 male mice; conditions: P<0.01
Protocol: FIG. 27, Left Panel: Effect of AMP peptide on appearance of blood in the stool of mice with DSS-induced colitis. Mice (n=50) were given 3% dextran sulfate sodium, and stools were assayed daily for the presence of blood. Appearance of bloody diarrhea was delayed in animals treated with AMP peptide (10 mg/kg body weight/day) compared to those given the vehicle (P<0.01). Right panel: Effect of treatment with AMP peptide on body weight of mice with DSS colitis. After animals (n=20) received 3% DSS to drink for 4 days, they were switched to water (day 0 on graph).
To evaluate the therapeutic efficacy of AMP peptide in vivo, colitis of mild to moderate severity was induced in C57BL/6 male mice by giving the animals DSS (3%) dissolved in tap water to drink ad libitum. Evidence of colitis (blood in the stool assayed by hemoccult strips) was found as early as day 1 (FIG. 27, left panel), and in all animals given injections of the vehicle subcutaneously (s.c.) by day 4. AMP peptide was administered s.c. one day before animals were given DSS, and once per day thereafter. Bloody stool was detected in fewer animals given AMP peptide than the vehicle (P<0.01; n=50).
To look for a systemic effect of treatment with AMP peptide during the development of DSS colitis, body weight was measured. During the first 4 days of DSS administration, body weight changed little in peptide- or vehicle-treated mice. Then DSS was discontinued, the animals were given water to drink (day 0; FIG. 27, right panel), and measurements of weight were continued. […] Because DSS treatment appeared to injure barrier function in monolayer cultures of C2 cells, assessed as a decrease in TER (FIG. 22) and reduced occludin in the detergent-insoluble fraction (FIG. 36), a question was whether DSS might adversely affect the content of this TJ protein in vivo. […] Occludin levels in the NP-40-insoluble fraction were assessed by immunoblotting. […]

Helicobacter pylori = assay: Growth inhibition on a bacterial lawn (filter diffusion); type: cell-based; conditions: solution on filter
Protocol: To determine if AMP peptide inhibits growth of H. pylori, a lawn of bacteria was prepared on a culture dish. A small circular filter was placed in the center of the dish, a solution of a test agent was placed on the filter so it diffused onto the lawn, and its effect on bacterial growth around the filter was measured. AMP peptide 77-97 (SEQ ID NO: 12) (Table 1), a scrambled version of this AMP peptide (negative control) (SEQ ID NO: 19), or the antibiotic clarithromycin (positive control) was added to a filter on different cultures. […] In addition, AMP peptide could serve as a therapeutic agent to treat H. pylori infections in the stomach, and thereby prevent the capacity of this organism to cause gastritis, gastric ulcers, and gastric adenocarcinomas.

Klebsiella pneumoniae = assay: Growth of other bacteria and fungi; type: cell-based

LDALVKEKKLQGKGPGGPPPK [97–117, peptide 77-97 of the mature protein, same as 97-117 of the human precursor]
changes in claudin-1, claudin-2, β-catenin, Na-K-2Cl cotransporter, Na-K-ATPase subunits, Rho A, hsc73 [1]: not observed
increase in accumulation of junctional adhesion molecule (JAM) ([1]; 48 and 72 hr vs 0 hr): ~50%
increased accumulation of E-cadherin ([1]; 8 hr): 2 fold
increased accumulation of occludin, ZO-1, ZO-2 and claudin-5 ([1]; 8 hr, densitometric analysis): 3- to 6 fold
accumulation of occludin and ZO-1 (specificity) ([1]; 8 hr, peptides 8 μg/ml, EGF 50 ng/ml): enhanced accumulation
ZO-1 and occludin levels in the insoluble fraction versus vehicle ([1]; after oxidant injury): two-fold
accumulation of occludin and claudin-5, basolateral exposure ([1]; basolateral compartment of Transwell, 8 hr): increased accumulation
Hsc73 expression ([1]; exposure up to 18 hr): not altered
increase in occludin immunoreactivity compared to control ([1]; non-injured cells, after 2 hr): 65%
increase in ZO-1 immunoreactivity compared to control ([1]; non-injured cells, at 8 hr): 65%
occludin immunoreactivity versus vehicle-treated control cells ([1]; peptide 8 μg/ml, 18 hr, listed as AMP peptide): double
growth stimulation of HeLa cells (HeLa cells): does not stimulate growth
growth stimulation of HeLa cells (HeLa cells; listed as AMP peptide): failure
growth of NCI N-87 cells (NCI N-87 cells): stimulated
appearance of blood in the stool (bloody diarrhea) versus vehicle ([2]; 3% DSS, 10 mg/kg body weight/day s.c., listed as AMP peptide, 10 mg/kg/day): fewer animals; also recorded: delayed
body weight loss versus vehicle ([2]; 3 days after switching from 3% DSS to water, 10 mg/kg s.c. daily): lost less weight
recovery of body weight ([2]; day 7 after stopping DSS, listed as AMP peptide): complete recovery; also recorded: completely recovered
growth of H. pylori lawn (Helicobacter pylori; listed as AMP peptide): inhibited growth
growth of H. pylori lawn (Helicobacter pylori; listed as AMP peptide 77-97): inhibited
growth of Klebsiella pneumoniae (Klebsiella pneumoniae): did not alter the growth
